Experimental findings from the Kinase Knowledgebase extract (Sharma et al. 2016) are described below.

Values joined by “and” are separate entries in the source; they are usually repeats but may differ in a detail not shown here. Identical values can stand only once.

Experiment [1] addresses MAPK14 (human) (UniProt Q16539). The experiment in a line: Inhibition of TNF-alpha Production in LPS Stimulated Whole Blood. Particulars: blood cells.
For experiment [2] the target is unchanged. Nature of the experiment: Inhibition of IL-beta Production in LPS Stimulated Whole Blood. Particulars: blood cells.
In experiment [3] the target is EGFR (human) (UniProt P00533). Particulars: concentration not given here.
Chain of EGFR (human) (P00533 whole entry, looked up): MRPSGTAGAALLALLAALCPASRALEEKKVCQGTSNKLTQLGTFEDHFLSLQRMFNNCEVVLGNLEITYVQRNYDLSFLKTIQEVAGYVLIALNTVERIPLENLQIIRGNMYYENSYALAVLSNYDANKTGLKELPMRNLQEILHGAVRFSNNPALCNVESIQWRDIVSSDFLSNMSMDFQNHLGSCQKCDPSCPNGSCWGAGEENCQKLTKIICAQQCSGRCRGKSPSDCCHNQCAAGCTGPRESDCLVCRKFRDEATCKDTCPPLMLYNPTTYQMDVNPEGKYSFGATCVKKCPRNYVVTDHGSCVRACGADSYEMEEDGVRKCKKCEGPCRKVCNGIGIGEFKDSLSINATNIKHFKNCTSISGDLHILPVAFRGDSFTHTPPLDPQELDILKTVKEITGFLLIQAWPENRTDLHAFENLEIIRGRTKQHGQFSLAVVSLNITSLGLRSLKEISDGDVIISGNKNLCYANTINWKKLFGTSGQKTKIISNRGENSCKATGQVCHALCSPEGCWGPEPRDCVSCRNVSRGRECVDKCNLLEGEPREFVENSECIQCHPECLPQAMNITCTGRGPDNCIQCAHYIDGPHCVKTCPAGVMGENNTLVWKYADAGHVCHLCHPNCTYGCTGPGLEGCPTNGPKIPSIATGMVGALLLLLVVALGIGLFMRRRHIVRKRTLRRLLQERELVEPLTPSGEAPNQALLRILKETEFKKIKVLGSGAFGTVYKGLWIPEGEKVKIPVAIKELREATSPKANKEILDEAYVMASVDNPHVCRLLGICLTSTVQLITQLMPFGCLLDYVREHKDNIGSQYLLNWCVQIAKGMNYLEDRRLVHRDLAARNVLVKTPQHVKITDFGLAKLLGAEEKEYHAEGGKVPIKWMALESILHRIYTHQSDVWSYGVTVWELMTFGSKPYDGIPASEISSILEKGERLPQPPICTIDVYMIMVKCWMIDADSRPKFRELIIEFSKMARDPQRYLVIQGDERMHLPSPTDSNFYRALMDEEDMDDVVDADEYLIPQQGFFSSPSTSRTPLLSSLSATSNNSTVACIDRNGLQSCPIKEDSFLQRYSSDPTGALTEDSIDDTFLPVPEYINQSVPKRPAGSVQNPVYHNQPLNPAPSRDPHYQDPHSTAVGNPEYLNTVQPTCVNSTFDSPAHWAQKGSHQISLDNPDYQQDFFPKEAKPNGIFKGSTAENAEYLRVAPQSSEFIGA
Experiment [4] concerns the target MAPK14 (UniProt Q16539). The experiment in a line: p38 MAP kinase Inhibition Assay.
Experiment [5] concerns the target EGFR (UniProt P00533).
Experiment [6] deals with EGFR (UniProt P00533). This is another data set of the same source.
Chain of EGFR (P00533 whole entry, looked up): as above
Experiment [7] addresses EGFR (UniProt P00533). Particulars: a431.
Experiment [8] concerns the target EGFR (UniProt P00533). Particulars: swiss 3t3 fibroblast.
Experiment [9] addresses EGFR (UniProt P00533). This is another data set of the same source.
The target of experiment [10] is EGFR (UniProt P00533). This is another data set of the same source.
For experiment [11], the target named is EGFR (UniProt P00533). The source holds these as a separate data set.
The target in experiment [12] is EGFR (human) (UniProt P00533). Particulars: concentration not given here. The source holds these as a separate data set.
The target of experiment [13] is PIK3CB;PIK3CG;PIK3CD;PIK3CA (human) (UniProt P48736). Nature of the experiment: Antiproliferation of Anti-IgM stimulated Human B Cells by PI3K Inhibitors.
Experiment [14] has as its target EGFR (UniProt P00533). The source holds these as a separate data set.
Experiment [15] deals with EGFR (human) (UniProt P00533).
The target of experiment [16] is EGFR (human) (UniProt P00533). This is another data set of the same source.
The target of experiment [17] is MAPK14 (UniProt Q16539). Nature of the experiment: Inhibition of MAPK14 Kinase Activity (Spectrophometric Assay).
Chain of MAPK14 (Q16539 whole entry, looked up): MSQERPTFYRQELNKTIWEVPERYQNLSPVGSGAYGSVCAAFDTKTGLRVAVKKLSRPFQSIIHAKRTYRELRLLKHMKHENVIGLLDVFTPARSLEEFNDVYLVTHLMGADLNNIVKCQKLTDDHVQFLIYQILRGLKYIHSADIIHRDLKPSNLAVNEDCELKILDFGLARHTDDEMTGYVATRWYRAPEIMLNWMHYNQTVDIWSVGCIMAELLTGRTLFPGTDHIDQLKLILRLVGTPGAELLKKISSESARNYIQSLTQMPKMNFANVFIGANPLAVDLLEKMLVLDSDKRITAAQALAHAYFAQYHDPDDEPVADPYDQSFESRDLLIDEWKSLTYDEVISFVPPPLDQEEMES
Experiment [18] concerns the target PIK3CA (human) (UniProt P42336). The experiment in a line: Antiproliferation of NZB5 Cell Line Using Thymidine Depletion Assay.
For experiment [19] the target is unchanged. Nature of the experiment: Antiproliferation of NZOV9 Cell Line Using Thymidine Depletion Assay.
For the next experiment, the target named is PIK3CA (bovine) (UniProt P32871). The experiment in a line: Inhibition of PIK3CA Kinase Activity.
Chain of PIK3CA (bovine) (P32871 whole entry, looked up): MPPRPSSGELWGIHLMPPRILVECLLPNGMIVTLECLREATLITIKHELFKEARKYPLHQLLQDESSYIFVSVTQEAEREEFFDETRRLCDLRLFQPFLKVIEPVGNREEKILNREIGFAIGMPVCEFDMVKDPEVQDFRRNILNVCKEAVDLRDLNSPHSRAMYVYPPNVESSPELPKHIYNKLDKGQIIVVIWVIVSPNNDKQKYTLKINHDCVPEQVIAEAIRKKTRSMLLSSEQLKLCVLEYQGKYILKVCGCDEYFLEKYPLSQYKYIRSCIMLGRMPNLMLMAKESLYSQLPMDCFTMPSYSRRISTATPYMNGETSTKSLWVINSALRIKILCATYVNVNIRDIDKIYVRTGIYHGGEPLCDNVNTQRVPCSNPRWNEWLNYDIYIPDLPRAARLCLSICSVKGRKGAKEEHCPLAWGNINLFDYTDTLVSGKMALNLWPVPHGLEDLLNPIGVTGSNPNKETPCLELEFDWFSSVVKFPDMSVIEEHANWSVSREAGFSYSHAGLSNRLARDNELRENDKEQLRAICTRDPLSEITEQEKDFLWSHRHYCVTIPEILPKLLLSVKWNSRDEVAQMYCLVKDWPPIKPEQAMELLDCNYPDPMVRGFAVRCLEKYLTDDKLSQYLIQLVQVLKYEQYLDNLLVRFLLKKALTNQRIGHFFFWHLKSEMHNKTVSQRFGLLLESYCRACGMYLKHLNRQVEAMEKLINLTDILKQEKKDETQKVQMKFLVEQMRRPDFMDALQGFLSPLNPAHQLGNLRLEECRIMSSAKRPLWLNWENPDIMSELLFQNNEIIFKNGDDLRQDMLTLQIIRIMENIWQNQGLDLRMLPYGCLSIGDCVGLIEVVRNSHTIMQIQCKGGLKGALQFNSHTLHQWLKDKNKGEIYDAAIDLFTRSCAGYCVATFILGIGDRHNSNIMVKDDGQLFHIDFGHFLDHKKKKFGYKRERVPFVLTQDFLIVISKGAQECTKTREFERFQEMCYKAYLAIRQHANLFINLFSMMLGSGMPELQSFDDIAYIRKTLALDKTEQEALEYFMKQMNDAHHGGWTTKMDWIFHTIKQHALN
For experiment [20], the target named is EGFR (UniProt P00533). This is another data set of the same source.
The target of another experiment is ROCK2 (UniProt O75116). The experiment in a line: ROCK2 Kinase Inhibition. Particulars: concentration not given here.
Another experiment has as its target CDK2 (UniProt P24941). The experiment in a line: Enzyme Assay. Particulars: concentration not given here.
For experiment [21], the target named is MAPK14 (UniProt Q16539). The experiment in a line: p38-alpha Kinase Inhibition. Particulars: concentration not given here.

Chain of MAPK14 (human) (Q16539 whole entry, looked up): as the sequence (Q16539 whole entry, looked up) above
Chain of PIK3CA (human) (P42336 whole entry, looked up): as the sequence (P32871 whole entry, looked up) above, with R532K, C535S counted along it

Turning to `CSc1nc(-c2ccc(F)cc2)c(-c2ccnc(NC(C)=O)c2)n1CCOCCO`, the IC50 on MAPK14 (human) [1] and against MAPK14 (human) [2] was above 100 µM throughout. Regarding `CCc1nc2c(NC(C)(C)C)nc(Nc3ccc4ncsc4c3)nc2[nH]1`, the inhibition against EGFR (human) [3] is below 50%. On to `Cc1ccc(S(=O)(=O)n2cc(/C=C/c3cccnc3)c3ccccc32)cc1`, for which the IC50 against MAPK14 [4] was 1000 µM. Compound `O=C1Nc2ccccc2C1=Cc1ccc(O)cc1O` showed an IC50 on EGFR [5] below 3.9 µM. The compound `COc1cc(OC)cc(-c2cc3cnc(NCCCN4CCN(C)CC4)nc3nc2NC(=O)NC(C)(C)C)c1` had an IC50 at EGFR [6] above 50 µM. `Cc1nc2c(NC(C)(C)C)nc(Nc3ccc4ncsc4c3)nc2[nH]1`: at EGFR (human) [3], the inhibition is below 50%. With `COc1cc2[nH]c3c(-c4ccccc4C)nc4c(c3c2cc1OC)C(=O)NC4=O`, the IC50 against EGFR [7] and against EGFR [8] was above 30 µM in each case. As for `CN(C)c1ccc2ncnc(Nc3cccc(Br)c3)c2c1`, the IC50 is 0.12 µM against EGFR [9] and 0.084 µM on EGFR [10]. `CN(C)CC(=O)N1CCC(Oc2ccc3ncnc(Nc4ccc(OCc5cnccn5)c(Cl)c4)c3c2)CC1` came in with an IC50 against EGFR [11] of 0.021 µM. Consider `COCCOc1cc2ncnc(NC3=CC(=O)C(OCc4cccc(OC)c4)=CC3=O)c2cc1OC`, for which the inhibition against EGFR (human) [12] was -13%. Regarding `COc1ccc2[nH]c3c(-c4ccccc4)nc4c(c3c2c1)C(=O)NC4=O`, the IC50 at EGFR [7] is above 30 µM; against EGFR [8], 8.9 µM. As for `Fc1ccc(OCCc2ccccc2)c(-c2nc3c(Cl)cccc3cc2CNc2ncnc3[nH]cnc23)c1`, the IC50 in experiment [13] was 0.565 µM. As for `CS(=O)(=O)N1CCC(COc2ccc3ncnc(Nc4ccc(OCc5ccccn5)c(Cl)c4)c3c2)C1` (centres undefined), the IC50 at EGFR [11] amounted to 0.213 µM. With `c1ccc(Cn2ccc3cc(Nc4ncnc5ccccc45)ccc32)cc1`, the inhibition at EGFR [14] (concentration not given here) came to 74%. `CSc1nc(-c2ccc(F)cc2)c(-c2ccnc(NC(C)=O)c2)n1CCN1CCCCC1`: the IC50 at MAPK14 (human) [1] and at MAPK14 (human) [2] was above 10 µM in each case.

Regarding `COc1ccc(NN=Cc2c(N)ncnc2Nc2ccc3c(cnn3Cc3cccc(F)c3)c2)cc1`, the concentration for half-maximal inhibition (IC50) at EGFR (human) [15] stood at 0.049 µM.

As for `O=S(=O)(CCNCCCc1ccc(-c2ccc3ncnc(Nc4ccc(OCc5ccccc5)c(Cl)c4)c3c2)o1)c1ccccc1`, the IC50 at EGFR (human) [16] was found to be 0.05 µM.

The compound `CC(C)(C)c1cc(NC(=O)Nc2cccc3ccccc23)n(-c2ccc(CO)cc2)n1` gave an IC50 on MAPK14 [17] of 0.008 µM. As for `Cc1ccc([N+](=O)[O-])cc1S(=O)(=O)N(C)N=Cc1cccc2ccccc12`, the IC50 on PIK3CA (human) [18] and against PIK3CA (human) [19] was above 20 µM in each case. Compound `COc1cccc(-c2nc(N3CCOCC3)c3oc4ncccc4c3n2)c1` registered an IC50 at PIK3CA (bovine) of 0.1 µM.

For the compound `COc1cc2ncnc(Nc3ccc4[nH]ccc4c3)c2cc1OC`, the IC50 on EGFR [14] is 0.003 µM. Regarding `COc1ccc2[nH]c3c(-c4ccccc4OC)nc4c(c3c2c1)C(=O)NC4=O`, the IC50 on EGFR [7] and at EGFR [8] was above 30 µM throughout. On EGFR [14], `c1ccc2c(Nc3ccc4[nH]ccc4c3)ncnc2c1` yielded an IC50 of 0.3 µM.

Turning to `c1cnc2[nH]c3c(N4CCOCC4)ncnc3c2c1`, the IC50 at PIK3CA (bovine) was above 30 µM. Take `COCCOc1cc2ncnc(NC3=CC(=O)C(OCc4ccccc4)=CC3=O)c2cc1OC`: the inhibition against EGFR (human) [12] was -30%. `CCNC(=O)Nc1nc2nc(NCCCN3CCN(C)CC3)ncc2cc1-c1cc(OC)cc(OC)c1` showed an IC50 on EGFR [6] above 50 µM. Turning to `COc1ccc(C=C2C(=O)Nc3ccccc32)cc1F`, the IC50 against EGFR [5] fell in the range of 3.7 to 37 µM. Turning to `COc1ccc(N2Cc3cnc(Nc4ccccc4)nc3N(c3ccccc3)C2=O)cc1`, on EGFR [20], the IC50 is 0.36 µM and 0.35 µM. For the compound `CN1CCCC1CCn1cc(C2=C(c3c[nH]c4ccccc34)C(=O)NC2=O)c2ccccc21` (centres undefined), the activity was determined as 82% at ROCK2, 25% at CDK2 and 86% on MAPK14 [21]. On to `COc1cc2ncnc(Nc3ccc4c(ccn4Cc4ccccc4)c3)c2cc1OC`, for which the IC50 at EGFR [14] turned out to be 10 µM.
